According to patent publication US20080139455A1, “COMPOUNDS AND METHODS OF TREATING METABOLIC SYNDROME AND INFLAMMATION” (Forbes Medi-Tech (Research), Inc., priority 2006, published 2008):

Legend:
SPT [1] = target: T1, SPT (Homo sapiens, UniProt O15269+O15270); details: literature; cited from earlier work
T1 sequence (O15269 1-473): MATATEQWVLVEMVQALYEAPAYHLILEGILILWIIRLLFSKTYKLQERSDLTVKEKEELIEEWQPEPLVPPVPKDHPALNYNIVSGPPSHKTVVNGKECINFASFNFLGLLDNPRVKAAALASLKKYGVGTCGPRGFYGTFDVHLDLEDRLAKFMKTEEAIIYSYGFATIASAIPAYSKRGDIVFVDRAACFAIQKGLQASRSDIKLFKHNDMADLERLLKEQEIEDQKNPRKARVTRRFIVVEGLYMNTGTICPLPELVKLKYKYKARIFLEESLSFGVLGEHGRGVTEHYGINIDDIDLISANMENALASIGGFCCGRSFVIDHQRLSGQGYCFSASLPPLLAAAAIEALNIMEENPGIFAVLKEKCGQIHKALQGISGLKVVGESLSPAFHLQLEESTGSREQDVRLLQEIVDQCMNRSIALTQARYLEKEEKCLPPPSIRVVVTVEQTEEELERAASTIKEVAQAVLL
T1 sequence (O15270 1-562): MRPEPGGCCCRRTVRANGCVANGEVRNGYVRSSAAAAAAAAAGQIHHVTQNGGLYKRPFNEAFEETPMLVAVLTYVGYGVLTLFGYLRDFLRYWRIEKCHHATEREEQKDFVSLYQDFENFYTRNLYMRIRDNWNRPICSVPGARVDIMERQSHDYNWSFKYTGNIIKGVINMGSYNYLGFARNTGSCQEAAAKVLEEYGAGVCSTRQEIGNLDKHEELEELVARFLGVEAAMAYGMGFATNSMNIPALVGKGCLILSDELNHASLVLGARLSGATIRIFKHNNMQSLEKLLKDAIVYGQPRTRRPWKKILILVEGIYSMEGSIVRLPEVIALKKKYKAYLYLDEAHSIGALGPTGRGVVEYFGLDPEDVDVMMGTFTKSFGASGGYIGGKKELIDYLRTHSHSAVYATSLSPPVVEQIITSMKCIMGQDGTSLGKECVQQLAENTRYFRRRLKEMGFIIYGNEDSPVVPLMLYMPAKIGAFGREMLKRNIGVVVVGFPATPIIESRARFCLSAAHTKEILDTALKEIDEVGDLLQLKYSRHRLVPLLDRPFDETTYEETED

[2] = test system: diabetic Zucker fatty rat model; details: literature; cited from earlier work
ApoE knockout mice = details: literature; cited from earlier work
SPT [3] = target: T1, SPT; experiment: Serine palmitoyltransferase activity, Assay C ([3H]serine incorporation into lipids, cell homogenates); assay type: biochemical; details: 37° C. for 20 min, at the doses indicated
Method: An alternative assay for evaluating inhibition of SPT, the enzyme present in commonly cultured cells, is performed with CHO cells or a human cell line. Cells are washed three times with ice-cold phosphate-buffered saline (PBS). A total of 0.5 mL of lysis buffer [50 mM Hepes (pH 8.0) containing 5 mM ethylenediaminetetraacetic acid (EDTA) and 5 mM dithiothreitol (DTT)] is added to each dish. The cells are scraped using a rubber policeman, and are then transferred to a test tube on ice. The cell suspension is sonicated three times for 5 s at 1-2 min intervals on ice. Protein concentrations in cell homogenates are measured using a Bradford protein assay kit (Bio-Rad). […] The radioactivity is measured with a LS6000TA liquid scintillation counter (Beckman). Nonspecific conversion of [^3H] serine to chloroform-soluble species is determined by performing the assay in the absence of palmitoyl CoA. […]
An alternative assay using a non-chlorinated solvent modification of the Blye and Dyer lipid extraction method reported in Smedes (Smedes, F. (1999) Analyst 124, 1711-18) is employed to evaluate exemplary compounds. […] An accurately measured portion of the organic layer (4.0 ml) is added to a scintillation vial with 1 ml of water. […] The amount of [^3H] serine radioactivity incorporated into lipids is quantified in a scintillation counter. […]

mice = details: literature, cited from earlier work; for protective effect / prevention of progression of emphysema: VEGF receptor blockade model
Rat pancreatic islets = experiment: Protection of islets by an SPT inhibitor (propidium iodide staining, flow cytometry); assay type: cell-based; details: 3 days
Method: Islet protection by an exemplary compound is evaluated in an assay according to Eitel, K, et al. Biochem. Biophys. Res. Commun. 299: 853-6 (2002), and results obtained in this assay are reported below in Table 4. Rat pancreatic islets are cultured with control medium (RPMI 1640 supplemented with 10% fetal bovine serum, antibiotics and made 8% in glucose) or in medium supplemented with I millimolar sodium palmitate (Fatty Acid Medium) during a period of 3 days. The culture medium is changed after 2 days to an identical composition culture medium with fresh inhibitor in the appropriate wells. Cells are stained with propidium iodide (PI), washed and propidium staining of cells (as a measure of cellular DNA content) is assessed by flow cytometry. The percentage of cells having less than the normal amount of PI staining is considered to be apoptotic cells (Eitel, K, et al. (2002)).

Compound	activity against / inhibition of SPT (SPT [1])	inhibition of SPT ([3H] serine radioactivity incorporated into lipids) (SPT [3])	protective effect / prevention of progression of emphysema (mice)	also measured
N[C@@H]1CON=C1O [cycloserine]	weak inhibition	–	–	beta cell protective effect [2]: ≈ 50%
CCCCCCCCc1ccc(CCC(N)(CO)C(=O)O)cc1 (stereo not shown) [compound 2]	did not exhibit activity against SPT	–	–	–
CCCCCCC(=O)CCCCCC/C=C/C[C@@H](O)[C@H](O)[C@@](N)(CO)C(=O)O [ISP-1]	–	potent but non-selective inhibition	very strong protective effect	atherosclerotic plaque (ApoE knockout mice): dramatic reduction in atherosclerotic plaque; IC50 for inhibition of SPT (SPT [1]): sub-nanomolar
CCCC[C@@H](C)[C@@H](OC(=O)C[C@@H](CC(=O)O)C(=O)O)[C@H](C[C@@H](C)C[C@H](O)CCCC[C@@H](O)C[C@H](O)[C@H](C)N)OC(=O)C[C@@H](CC(=O)O)C(=O)O [fumonisin B1]	–	–	less effective	toxicity (mice; emphysema model, higher doses): some toxicity at higher doses
CCCCCCCCc1ccc(CCC(N)(CO)CO)cc1 [FTY720]	do not inhibit SPT	–	–	–
CCCCCCCOc1cccc(CCC(O)C(O)C(N)C(=O)O)c1 (stereo not shown) [Compound 12]	–	moderate activity	–	protection of islet cells from fatty acid treatment (apoptotic cells by PI staining) (Rat pancreatic islets; medium with sodium palmitate (Fatty Acid Medium)): fully protect cells from the fatty acid treatment; benefit in comparison to treatment with the control medium (apoptotic cells by PI staining) (Rat pancreatic islets; versus control medium): imparts a benefit in comparison to treatment with the control medium
